Consider 19 compounds from US20230141603A1, “BENZODIAZEPINE DERIVATIVES AS GABA A GAMMA1 PAM” (Hoffmann-La Roche Inc., priority 2021, published 2023).

One may read the Ki as the dissociation constant of the complex between target and ligand, obtained from inhibition or displacement. Low readings indicate higher affinity, high ones lower affinity.

Structures are written as SMILES.

In this test the target is T1, h-GABAA α5β2γ1 (Homo sapiens, UniProt P31644+Q8N1C3).
T1 construct: expressed in transfected cells; host or cells: HEK293F cells (ThermoFisher R79007), membranes
T1 sequence (P31644 32-462): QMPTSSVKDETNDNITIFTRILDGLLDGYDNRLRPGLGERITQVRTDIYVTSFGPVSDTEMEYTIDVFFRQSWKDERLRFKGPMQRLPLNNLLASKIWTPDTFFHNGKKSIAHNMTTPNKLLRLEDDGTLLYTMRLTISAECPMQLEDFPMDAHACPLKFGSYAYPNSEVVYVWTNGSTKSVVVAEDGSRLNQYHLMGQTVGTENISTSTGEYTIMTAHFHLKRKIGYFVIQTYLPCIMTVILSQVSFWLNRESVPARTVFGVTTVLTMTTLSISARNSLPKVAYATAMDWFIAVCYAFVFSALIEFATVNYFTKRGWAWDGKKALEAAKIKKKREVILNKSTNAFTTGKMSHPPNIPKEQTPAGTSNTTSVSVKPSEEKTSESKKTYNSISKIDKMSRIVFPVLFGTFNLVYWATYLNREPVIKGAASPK
T1 sequence (P47870 25-512 partner limits assumed): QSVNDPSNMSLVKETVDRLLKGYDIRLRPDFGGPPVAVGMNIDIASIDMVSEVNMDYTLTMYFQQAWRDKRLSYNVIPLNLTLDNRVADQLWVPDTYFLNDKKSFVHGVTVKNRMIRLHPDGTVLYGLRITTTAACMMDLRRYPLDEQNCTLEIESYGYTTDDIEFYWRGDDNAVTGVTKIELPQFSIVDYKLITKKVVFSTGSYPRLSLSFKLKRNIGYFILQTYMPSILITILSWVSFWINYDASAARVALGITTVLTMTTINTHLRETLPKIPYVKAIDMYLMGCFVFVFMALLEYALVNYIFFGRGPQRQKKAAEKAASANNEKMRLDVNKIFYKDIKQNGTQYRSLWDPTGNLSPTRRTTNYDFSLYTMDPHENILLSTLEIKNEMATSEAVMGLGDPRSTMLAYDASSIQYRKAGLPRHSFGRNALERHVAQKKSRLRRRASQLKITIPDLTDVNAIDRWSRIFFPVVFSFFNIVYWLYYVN
T1 sequence (Q8N1C3 36-465): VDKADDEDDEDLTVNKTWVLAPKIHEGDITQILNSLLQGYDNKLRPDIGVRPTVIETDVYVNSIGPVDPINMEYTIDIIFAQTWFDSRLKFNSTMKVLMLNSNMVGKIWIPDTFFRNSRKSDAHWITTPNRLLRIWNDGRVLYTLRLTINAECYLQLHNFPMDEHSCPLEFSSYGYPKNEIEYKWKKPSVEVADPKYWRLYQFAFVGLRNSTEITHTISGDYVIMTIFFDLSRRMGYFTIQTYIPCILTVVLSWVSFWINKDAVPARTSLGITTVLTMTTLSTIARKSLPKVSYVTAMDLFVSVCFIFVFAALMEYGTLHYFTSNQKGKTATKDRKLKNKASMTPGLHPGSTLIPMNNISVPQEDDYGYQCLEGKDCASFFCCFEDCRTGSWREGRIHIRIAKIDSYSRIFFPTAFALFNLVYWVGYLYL
Description: Radioligand binding assay, [3H]RO7239181 competition, HEK293F membranes. As to the method: The affinity of compounds at GABAA γ1 subunit-containing receptors was measured by competition for [^3H]RO7239181 (67.3 Ci/mmol; Roche) binding to membranes from HEK293F cells (ThermoFisher R79007) expressing human (transiently transfected) receptors of composition […], α2β2γ1, α1β2γ1. For better protein expression of the α2 subunit-containing receptors, the 28 amino acid long signal peptide (Met1 to Ala28) of the human GABAA α2 subunit was substituted by the 31 amino acid long signal peptide (Met1 to Ser31) of human GABAA α5 subunit.
Harvested pellets from HEK293F cells expressing the different GABAA receptor subtypes were resuspended in Mannitol Buffer pH 7.2-7.4 (Mannitol 0.29M, Triethylamine 10 mM, Acetic acid 10 mM, EDTA 1 mM plus protease inhibitors (20 tablets Complete, Roche Diagnostics Cat. No. 05 056 489 001 per liter)), washed two times and then resuspended at 1:10 to 1:15 dilution in the same buffer. Cell disruption was performed by stirring the suspension in a Parr vessel #4637 at 435 psi for 15 minutes, and then the suspensions were centrifuged at 1000×g for 15 minutes at 4° C. (Beckman Avanti J-HC; rotor JS-4.2). The supernatant (S1) was transferred in a 21 Schott flask and the pellet (P1) was resuspended with Mannitol Buffer up to 175 ml. The resuspended pellet was transferred into a 250 ml Corning centrifugal beaker and centrifuged at 1500×g for 10 minutes at 4° C. (Beckman Avanti J-HC; rotor JS-4.2). The supernatant (S1) was then transferred in the 21 Schott flask and the pellet was discarded. The supernatants (S1) were centrifuged in 500 ml Beckman polypropylene centrifugal beaker at 15′000×g for 30 minutes at 4° C. (Beckman Avanti J-20 XP; rotor JLA-10.500). The pellet (P2) was resuspended with Mannitol Buffer 1:1 and frozen at −80° C. The supernatant (S2) was centrifuged in 100 ml Beckman polypropylene centrifugal tubes at 48000×g for 50 minutes at 4° C. (Beckman Avanti J-20 XP; rotor JA-18). The supernatant (S3) was discarded and the pellet (P3) was resuspended with 1:1 Mannitol Buffer. The P2 and P3 protein concentration was determined with the BIORAD Standard assay method with bovine serum albumin as standard and measured on the NANO-Drop 1000. The membrane suspension was aliquots (500 μl per tube) and stored at −80° C. until required. Membrane homogenates were resuspended and polytronised (Polytron PT1200E Kinematica AG) in Potassium Phosphate 10 mM, KCl 100 mM binding buffer at pH 7.4 to a final assay concentration determined with a previous experiment.
Radioligand binding assays were carried out in a volume of 200 μL (96-well plates) which contained 100 μL of cell membranes, [^3H]RO7239181 at a concentration of 1.5 nM (α5β2γ1) or 20-30 nM (α1β2γ1, α2β2γ1) and the test compound in the range of [0.3-10000]×10^−9 M. Nonspecific binding was defined by 10×10^−6 (α5β2γ1) and 30×10^−6 M RO7235136 and typically represented less than 5% (α5β2γ1) and less than 20% (α1β2γ1, α2β2γ1) of the total binding. Assays were incubated to equilibrium for 1 hour at 4° C. and then, membranes were filtered onto unifilter (96-well white microplate with bonded GF/C filters preincubated 20-50 minutes in 0.3% Polyethylenimine) with a Filtermate 196 harvester (Packard BioScience) and washed 4 times with cold Potassium Phosphate 10 mM pH 7.4, KCl 100 mM binding buffer. After drying, filter-retained radioactivity was detected by liquid scintillation counting. Ki values were calculated using Excel-Fit (Microsoft) and are the means of two determinations.
On to `Fc1cccnc1C1=NCc2nnc(-c3ccncn3)n2-c2ccc(Br)c(Cl)c21` [Example 46, 8-bromo-7-chloro-6-(3-fluoro-2-pyridyl)-1-pyrimidin-4-yl-4H-[1,2,4]triazolo[4,3-a][1,4]benzodiazepine], for which the Ki turned out to be 3.9 nM. To `Clc1cccnc1C1=NCc2nnc(-c3cccnn3)n2-c2ccc(Br)c(Cl)c21` [Example 47, 8-bromo-7-chloro-6-(3-chloro-2-pyridyl)-1-pyridazin-3-yl-4H-[1,2,4]triazolo[4,3-a][1,4]benzodiazepine] belongs 1.3 nM. To `Cc1ccc2c(c1Cl)C(c1c(F)cccc1F)=NCc1nnc(-c3cccnn3)n1-2` [Example 48, 7-chloro-6-(2,6-difluorophenyl)-8-methyl-1-pyridazin-3-yl-4H-[1,2,4]triazolo[4,3-a][1,4]benzodiazepine] belongs 1.1 nM.

`Cc1ccc2c(c1Cl)C(c1c(F)cccc1F)=NCc1nnc(-c3ccncn3)n1-2` [Example 49, 7-chloro-6-(2,6-difluorophenyl)-8-methyl-1-pyrimidin-4-yl-4H-[1,2,4]triazolo[4,3-a][1,4]benzodiazepine]: the Ki was 1.7 nM. To `Cc1nnc2n1-c1ccc(Br)c(Cl)c1C(c1c(F)cccc1Cl)=NC2` [Example 50, 8-bromo-7-chloro-6-(2-chloro-6-fluoro-phenyl)-1-methyl-4H-[1,2,4]triazolo[4,3-a][1,4]benzodiazepine] belongs 1 nM.

Compound `Fc1cccnc1C1=NCc2nnc(-c3cccnn3)n2-c2ccc(Cl)c(Cl)c21` [Example 54, 7,8-dichloro-6-(3-fluoro-2-pyridyl)-1-pyridazin-3-yl-4H-[1,2,4]triazolo[4,3-a][1,4]benzodiazepine] displayed a Ki of 3.8 nM. Consider `Fc1cccnc1C1=NCc2nnc(-c3ccncn3)n2-c2ccc(Cl)c(Cl)c21` [Example 55, 7,8-dichloro-6-(3-fluoro-2-pyridyl)-1-pyrimidin-4-yl-4H-[1,2,4]triazolo[4,3-a][1,4]benzodiazepine], for which the Ki came to 5.5 nM. To `COc1ccc2c(c1Cl)C(c1c(F)cccc1F)=NCc1nnc(-c3cccnn3)n1-2` [Example 57, 7-chloro-6-(2,6-difluorophenyl)-8-methoxy-1-pyridazin-3-yl-4H-[1,2,4]triazolo[4,3-a][1,4]benzodiazepine] belongs 4.6 nM; to `Cn1cc(-c2nnc3n2-c2ccc(Cl)c(Cl)c2C(c2ncccc2F)=NC3)cn1` [Example 58, 7,8-dichloro-6-(3-fluoro-2-pyridyl)-1-(1-methylpyrazol-4-yl)-4H-[1,2,4]triazolo[4,3-a][1,4]benzodiazepine], 3.6 nM. On to `O=c1[nH]nc2n1-c1ccc(Cl)c(Cl)c1C(c1ncccc1F)=NC2` [Example 59, 7,8-dichloro-6-(3-fluoro-2-pyridyl)-2,4-dihydro-[1,2,4]triazolo[4,3-a][1,4]benzodiazepin-1-one], for which the Ki stood at 5.9 nM. Compared with the last compound, the Ki is about 1.6-fold higher.

For `Fc1cccnc1C1=NCc2nncn2-c2ccc(Cl)c(Cl)c21` [Example 60, 7,8-dichloro-6-(3-fluoro-2-pyridyl)-4H-[1,2,4]triazolo[4,3-a][1,4]benzodiazepine], the affinity corresponds to a Ki of 7.5 nM. To `COc1ccc2c(c1Cl)C(c1c(F)cccc1F)=NCc1nnc(-c3ccncn3)n1-2` [Example 61, 7-chloro-6-(2,6-difluorophenyl)-8-methoxy-1-pyrimidin-4-yl-4H-[1,2,4]triazolo[4,3-a][1,4]benzodiazepine] belongs 4.2 nM; to `COc1ccc2c(c1Cl)C(c1c(F)cccc1F)=NCc1nnc(-c3cccnc3)n1-2` [Example 62, 7-chloro-6-(2,6-difluorophenyl)-8-methoxy-1-(3-pyridyl)-4H-[1,2,4]triazolo[4,3-a][1,4]benzodiazepine], 4 nM. Consider `Fc1cccnc1C1=NCc2nnc(C3CC3)n2-c2ccc(Cl)c(Cl)c21` [Example 65, 7,8-dichloro-1-cyclopropyl-6-(3-fluoro-2-pyridyl)-4H-[1,2,4]triazolo[4,3-a][1,4]benzodiazepine], for which the affinity, expressed as Ki, was 7.8 nM. To `Fc1cccnc1C1=NCc2nnc(-c3ccncn3)n2-c2ccc(C(F)(F)F)c(Cl)c21` [Example 69, 7-chloro-6-(3-fluoro-2-pyridyl)-1-pyrimidin-4-yl-8-(trifluoromethyl)-4H-[1,2,4]triazolo[4,3-a][1,4]benzodiazepine] belongs 7.1 nM; to `Cn1cc(-c2nnc3n2-c2ccc(C(F)(F)F)c(Cl)c2C(c2ncccc2F)=NC3)cn1` [Example 70, 7-chloro-6-(3-fluoro-2-pyridyl)-1-(1-methylpyrazol-4-yl)-8-(trifluoromethyl)-4H-[1,2,4]triazolo[4,3-a][1,4]benzodiazepine], 6.8 nM. To `Cc1nnc2n1-c1ccc(Cl)c(Cl)c1C(c1ncccc1F)=NC2` [Example 71, 7,8-dichloro-6-(3-fluoro-2-pyridyl)-1-methyl-4H-[1,2,4]triazolo[4,3-a][1,4]benzodiazepine] belongs 5.7 nM; to `Fc1cccnc1C1=NCc2nnc(-c3cccnn3)n2-c2ccc(C(F)(F)F)c(Cl)c21` [Example 72, 7-chloro-6-(3-fluoro-2-pyridyl)-1-pyridazin-3-yl-8-(trifluoromethyl)-4H-[1,2,4]triazolo[4,3-a][1,4]benzodiazepine], 5.4 nM. `Fc1cccnc1C1=NCc2nnc(C3CC3)n2-c2ccc(Br)c(Cl)c21` [Example 77, 8-bromo-7-chloro-1-cyclopropyl-6-(3-fluoro-2-pyridyl)-4H-[1,2,4]triazolo[4,3-a][1,4]benzodiazepine] showed a Ki of 2.8 nM.
